Like-named read-outs stand apart in the source and are kept apart here.
Target: T1, F508delCFTR (Homo sapiens, UniProt P13569, DEL508-508)
T1 construct: expressed in transfected cells; host or cells: CFBE41o- human lung-derived epithelial cells (CFBE4lo-F508delCFTR-HRP), doxycycline-inducible
Assay: Cell Surface Expression-Horse Radish Peroxidase (CSE-HRP) Assay;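 for Maximum % activity (with co-corrector): co-corrector and positive control are both the same reference corrector at 2 µM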;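 for Maximum % activity (without co-corrector): percent of the 2 µM on-plate positive control corrector response above DMSO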
Format: cell-based
Conditions: for Emax / Maximum % activity (with co-corrector): maximum at any tested concentration, normalized to on-plate positive control; for Emax: read-out: Maximum % activity (without co-corrector); for Maximum % activity (with co-corrector): with co-corrector (2 μM)

[1] = test compound without co-corrector
[2] = test compound without co-corrector, read-out: EC50 (without co-corrector)
[3] = with co-corrector (2 μM of 3-[(2R,4R)-4-({[1-(2,2-difluoro-1,3-benzodioxol-5-yl)cyclopropyl]carbonyl}amino)-7-methoxy-3,4-dihydro-2H-chromen-2-yl]benzoic acid), read-out: EC50 (with co-corrector)

T1 sequence (P13569 with tags, fused parts or gaps DEL508-508): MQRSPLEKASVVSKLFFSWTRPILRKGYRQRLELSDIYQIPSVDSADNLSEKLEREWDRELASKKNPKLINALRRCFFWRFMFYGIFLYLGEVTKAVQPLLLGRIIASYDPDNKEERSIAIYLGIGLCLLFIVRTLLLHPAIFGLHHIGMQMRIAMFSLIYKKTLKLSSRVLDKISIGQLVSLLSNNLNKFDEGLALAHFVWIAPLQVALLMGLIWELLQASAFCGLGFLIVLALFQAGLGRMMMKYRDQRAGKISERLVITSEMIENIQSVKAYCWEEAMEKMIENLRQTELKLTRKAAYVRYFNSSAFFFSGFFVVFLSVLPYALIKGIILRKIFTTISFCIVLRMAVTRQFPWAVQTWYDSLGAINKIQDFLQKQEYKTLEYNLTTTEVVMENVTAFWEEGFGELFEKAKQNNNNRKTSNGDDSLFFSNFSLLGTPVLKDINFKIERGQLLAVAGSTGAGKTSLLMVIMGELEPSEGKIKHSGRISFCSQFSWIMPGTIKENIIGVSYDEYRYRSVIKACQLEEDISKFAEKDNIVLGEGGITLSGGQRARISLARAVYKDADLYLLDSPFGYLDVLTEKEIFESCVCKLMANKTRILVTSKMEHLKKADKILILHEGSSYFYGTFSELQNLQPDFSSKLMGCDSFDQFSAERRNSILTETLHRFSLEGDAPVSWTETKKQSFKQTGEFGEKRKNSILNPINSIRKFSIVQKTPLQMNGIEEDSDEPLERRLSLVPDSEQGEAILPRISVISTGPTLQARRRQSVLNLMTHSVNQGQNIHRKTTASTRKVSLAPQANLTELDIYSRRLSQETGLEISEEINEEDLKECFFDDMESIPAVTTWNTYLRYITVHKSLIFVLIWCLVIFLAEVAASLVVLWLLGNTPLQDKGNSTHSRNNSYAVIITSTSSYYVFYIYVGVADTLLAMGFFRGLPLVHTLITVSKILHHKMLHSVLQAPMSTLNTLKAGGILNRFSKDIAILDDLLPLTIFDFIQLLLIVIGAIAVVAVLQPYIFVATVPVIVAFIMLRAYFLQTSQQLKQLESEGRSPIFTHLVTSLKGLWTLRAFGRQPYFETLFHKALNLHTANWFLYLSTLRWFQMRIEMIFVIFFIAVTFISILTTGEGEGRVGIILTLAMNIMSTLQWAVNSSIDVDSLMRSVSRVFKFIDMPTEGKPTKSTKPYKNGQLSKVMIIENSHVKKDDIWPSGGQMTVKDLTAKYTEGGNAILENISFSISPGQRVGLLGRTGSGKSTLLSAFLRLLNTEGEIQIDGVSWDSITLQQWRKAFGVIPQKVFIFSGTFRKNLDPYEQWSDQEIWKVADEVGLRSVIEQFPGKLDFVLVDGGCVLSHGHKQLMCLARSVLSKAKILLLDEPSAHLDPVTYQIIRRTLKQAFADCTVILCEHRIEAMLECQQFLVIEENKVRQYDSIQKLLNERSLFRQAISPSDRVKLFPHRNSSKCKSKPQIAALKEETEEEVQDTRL

SMILES | Emax [1] | EC50 [2] | EC50 [3] | Maximum % activity (with co-corrector)
COc1ncc(C2CCC2)cc1CN[C@H]1[C@H](C(C)(C)C)[C@@H](C(=O)O)N(C(=O)C2CCCC(C(F)(F)F)C2)[C@H]1c1ccccc1 (stereo partly shown) [III-209] | 100 to 200% | 1 to 10 µM | < 1 µM | +++ (≥350)
COc1ccc(C(C)(C)C)cc1CN[C@H]1[C@H](C(C)(C)C)[C@@H](C(=O)O)N(C(=O)C2CCc3cc(F)ccc3O2)[C@H]1c1cccnc1N(C)C (stereo partly shown) [III-210] | < 100% | 1 to 10 µM | 1 to 10 µM | ++ (≥150 and <350)
COc1ncc(C(F)(F)F)cc1N[C@H]1[C@H](C(C)(C)C)[C@@H](C(=O)O)N(C(=O)[C@H]2CCCC[C@@H]2C(F)(F)F)[C@H]1c1cccnc1N(C)C [III-212] | < 100% | > 10 µM | 1 to 10 µM | ++ (≥150 and <350)
COc1ncc(C(F)(F)F)cc1N[C@H]1[C@H](C(C)(C)C)[C@@H](C(=O)O)N(C(=O)[C@H]2CCCCO2)[C@H]1c1cccnc1N(C)C [III-213] | < 100% | > 10 µM | > 10 µM | + (<150)
COc1ncc(C2CCC2)cc1CN[C@H]1[C@H](C(C)(C)C)[C@@H](C(=O)O)N(C(=O)C2CCCCC2C(F)(F)F)[C@H]1c1ccccc1 (stereo partly shown) [III-214] | 100 to 200% | < 1 µM | < 1 µM | +++ (≥350)
COc1ccc(C(C)(C)C)cc1CN[C@H]1[C@H](C(C)(C)C)[C@@](C)(C(=O)O)N(C(=O)[C@H](OC)c2ccccc2)[C@H]1c1ccccc1 [III-215] | < 100% | 1 to 10 µM | 1 to 10 µM | ++ (≥150 and <350)
Cc1cc(C(F)(F)F)cc(N[C@H]2[C@H](C(C)(C)C)[C@@H](C(=O)O)N(C(=O)[C@H]3CCCCO3)[C@H]2c2cccnc2N(C)C)n1 [III-216] | < 100% | 1 to 10 µM | 1 to 10 µM | ++ (≥150 and <350)
COc1ccc(C(C)(C)C)cc1CN[C@H]1[C@H](C(C)(C)C)[C@@H](C(=O)O)N(C(=O)N(C(C)C)C(C)C)[C@H]1c1ccccc1 [III-217] | < 100% | > 10 µM | 1 to 10 µM | + (<150)
COc1ccc(C23CC(C2)C3)cc1CN[C@H]1[C@H](C(C)(C)C)[C@@H](C(=O)O)N(C(=O)OC(C)C)[C@H]1c1cccnc1OC(F)F [III-218] | 100 to 200% | 1 to 10 µM | 1 to 10 µM | +++ (≥350)
COc1nc(C(C)(C)C)ccc1CN[C@H]1[C@H](C(C)(C)C)[C@@H](C(=O)O)N(C(=O)OC(C)C)[C@H]1c1cccnc1N(C)C [III-219] | 100 to 200% | 1 to 10 µM | < 1 µM | +++ (≥350)
COc1ccc(C23CC(C2)C3)cc1CN[C@H]1[C@H](C(C)(C)C)[C@@H](C(=O)O)N(C(=O)OC(C)C)[C@H]1c1ccccc1C(C)C [III-220] | > 200% | < 1 µM | < 1 µM | +++ (≥350)
COc1ncc(C(F)(F)F)cc1CN[C@H]1[C@H](C23CC(C2)C3)[C@@H](C(=O)O)N(C(=O)OC(C)C)[C@H]1c1ccccc1 [III-221] | 100 to 200% | 1 to 10 µM | 1 to 10 µM | +++ (≥350)
COc1ccc(C(C)(C)C)cc1CN[C@H]1[C@H](C23CC(C2)C3)[C@@H](C(=O)O)N(C(=O)OC(C)C)[C@H]1c1ccccc1F [III-222] | 100 to 200% | 1 to 10 µM | 1 to 10 µM | +++ (≥350)
COc1ncc(C2CCC2)cc1CN[C@H]1[C@H](C(C)(C)C)[C@@H](C(=O)O)N(C(=O)OC(C)C)[C@H]1c1cccnc1N(C)C [III-224] | > 200% | 1 to 10 µM | 1 to 10 µM | +++ (≥350)
COc1ccc(SC(F)(F)F)cc1CN[C@H]1[C@H](C(C)(C)C)[C@@H](C(=O)O)N(C(=O)OC(C)C)[C@H]1c1cccnc1N(C)C [III-225] | > 200% | 1 to 10 µM | 1 to 10 µM | +++ (≥350)
COc1cc2c(cc1CN[C@H]1[C@H](C(C)(C)C)[C@@H](C(=O)O)N(C(=O)OC(C)C)[C@H]1c1ccccc1)CCC2 [III-226] | > 200% | 1 to 10 µM | 1 to 10 µM | +++ (≥350)
COc1cc2c(cc1CN[C@H]1[C@H](C(C)(C)C)[C@@H](C(=O)O)N(C(=O)OC(C)C)[C@H]1c1ccccc1)C(C)(C)CCC2(C)C [III-227] | 100 to 200% | 1 to 10 µM | < 1 µM | +++ (≥350)
COc1ccc(C(C)(C)C)cc1CN[C@H]1[C@H](C(C)(C)C)[C@@H](C(=O)O)N(C(=O)OC(C)C)[C@H]1c1cccnc1OC(C)C [III-229] | > 200% | 1 to 10 µM | < 1 µM | +++ (≥350)
COc1ccc(C(C)(C)C)cc1CN[C@H]1[C@H](C(C)(C)C)[C@@H](C(=O)O)N(C(=O)[C@]2(C)COc3cc4c(cc32)OC(F)(F)O4)[C@H]1c1cccnc1OC [III-230] | < 100% | 1 to 10 µM | 1 to 10 µM | ++ (≥150 and <350)
COc1ccc(OC(F)(F)F)cc1CN[C@H]1[C@H](C(C)(C)C)[C@@H](C(=O)O)N(C(=O)OC(C)C)[C@H]1c1cccnc1OC(C)C [III-231] | > 200% | 1 to 10 µM | 1 to 10 µM | +++ (≥350)
CCC(C)(C)c1ccc(OC)c(CN[C@H]2[C@H](C(C)(C)C)[C@@H](C(=O)O)N(C(=O)OC(C)C)[C@H]2c2cccnc2N(C)C)c1 [III-232] | > 200% | 1 to 10 µM | 1 to 10 µM | +++ (≥350)
COc1ccc(C2(C)CCC2)cc1CN[C@H]1[C@H](C(C)(C)C)[C@@H](C(=O)O)N(C(=O)[C@@H]2CCCCO2)[C@H]1c1cccnc1OC [III-233] | > 200% | 1 to 10 µM | 1 to 10 µM | +++ (≥350)
COc1ccc(C2(C)CCC2)cc1CN[C@H]1[C@H](C(C)(C)C)[C@@H](C(=O)O)N(C(=O)[C@H]2CCCCO2)[C@H]1c1cccnc1OC [III-234] | 100 to 200% | 1 to 10 µM | 1 to 10 µM | +++ (≥350)
CC(C)OC(=O)N1[C@H](C(=O)O)[C@@H](C(C)(C)C)[C@H](NCC2CCN(C(C)C)CC2)[C@@H]1c1ccccc1 [III-235] | < 100% | > 10 µM | < 1 µM | + (<150)
COc1ncc(C2CCC2)cc1CN[C@@H]1[C@@H](C(C)(C)C)[C@H](C(=O)O)N(C(=O)[C@@H]2CCCO2)[C@@H]1c1ccccc1Cl [III-236] | < 100% | 1 to 10 µM | 1 to 10 µM | ++ (≥150 and <350)

Source: US20180099931A1 (AbbVie S.à.r.l., priority 2016, published 2018)
